{"source": "ChEMBL document CHEMBL3233012", "about": "“Synthesis, antimicrobial and cytotoxic activities of pyrimidinyl benzoxazole, benzothiazole and benzimidazole” (Eur J Med Chem, 2014)", "key": {"Pseudomonas aeruginosa [1]": {"tested_on": "Pseudomonas aeruginosa", "test": "Antimicrobial activity against Pseudomonas aeruginosa at 50 ug/well after 24 hrs by agar well diffusion method", "type": "functional", "settings": "read-out: DIZ"}, "Penicillium chrysogenum [2]": {"tested_on": "Penicillium chrysogenum", "test": "Antimicrobial activity against Penicillium chrysogenum after 24 hrs by broth dilution method", "type": "functional"}, "Staphylococcus aureus [3]": {"tested_on": "Staphylococcus aureus", "test": "Antimicrobial activity against Staphylococcus aureus ATCC 25923 after 24 hrs by broth dilution method", "type": "functional", "settings": "ATCC 25923, 24 h"}, "Aspergillus niger [4]": {"tested_on": "Aspergillus niger", "test": "Ratio of MBC to MIC for Aspergillus niger", "type": "functional"}, "Escherichia coli [5]": {"tested_on": "Escherichia coli", "test": "Antimicrobial activity against Escherichia coli at 25 ug/well after 24 hrs by agar well diffusion method", "type": "functional", "settings": "read-out: DIZ"}, "Penicillium chrysogenum [6]": {"tested_on": "Penicillium chrysogenum", "test": "Antimicrobial activity against Penicillium chrysogenum after 24 hrs", "type": "functional"}, "Aspergillus niger [7]": {"tested_on": "Aspergillus niger", "test": "Antimicrobial activity against Aspergillus niger at 100 ug/well after 48 hrs by agar well diffusion method", "type": "functional", "settings": "read-out: DIZ"}, "Staphylococcus aureus [8]": {"tested_on": "Staphylococcus aureus", "test": "Antimicrobial activity against Staphylococcus aureus at 100 ug/well after 24 hrs by agar well diffusion method", "type": "functional", "settings": "read-out: DIZ"}, "Escherichia coli [9]": {"tested_on": "Escherichia coli", "test": "Ratio of MBC to MIC for Escherichia coli ATCC 25922", "type": "functional"}, "Staphylococcus aureus [10]": {"tested_on": "Staphylococcus aureus", "test": "Antimicrobial activity against Staphylococcus aureus at 25 ug/well after 24 hrs by agar well diffusion method", "type": "functional", "settings": "read-out: DIZ"}, "Staphylococcus aureus [11]": {"tested_on": "Staphylococcus aureus", "test": "Antimicrobial activity against Staphylococcus aureus at 50 ug/well after 24 hrs by agar well diffusion method", "type": "functional", "settings": "read-out: DIZ"}, "Escherichia coli [12]": {"tested_on": "Escherichia coli", "test": "Antimicrobial activity against Escherichia coli ATCC 25922 after 24 hrs", "type": "functional", "settings": "ATCC 25922, 24 h"}, "Pseudomonas aeruginosa [13]": {"tested_on": "Pseudomonas aeruginosa", "test": "Ratio of MBC to MIC for Pseudomonas aeruginosa ATCC 27853", "type": "functional"}, "Penicillium chrysogenum [14]": {"tested_on": "Penicillium chrysogenum", "test": "Antimicrobial activity against Penicillium chrysogenum at 100 ug/well after 48 hrs by agar well diffusion method", "type": "functional", "settings": "read-out: DIZ"}, "Penicillium chrysogenum [15]": {"tested_on": "Penicillium chrysogenum", "test": "Ratio of MBC to MIC for Penicillium chrysogenum", "type": "functional"}, "Aspergillus niger [16]": {"tested_on": "Aspergillus niger", "test": "Antimicrobial activity against Aspergillus niger after 24 hrs", "type": "functional"}, "Pseudomonas aeruginosa [17]": {"tested_on": "Pseudomonas aeruginosa", "test": "Antimicrobial activity against Pseudomonas aeruginosa ATCC 27853 after 24 hrs by broth dilution method", "type": "functional", "settings": "ATCC 27853, 24 h"}, "Pseudomonas aeruginosa [18]": {"tested_on": "Pseudomonas aeruginosa", "test": "Antimicrobial activity against Pseudomonas aeruginosa ATCC 27853 after 24 hrs", "type": "functional", "settings": "ATCC 27853, 24 h"}, "Escherichia coli [19]": {"tested_on": "Escherichia coli", "test": "Antimicrobial activity against Escherichia coli at 50 ug/well after 24 hrs by agar well diffusion method", "type": "functional", "settings": "read-out: DIZ"}, "Staphylococcus aureus [20]": {"tested_on": "Staphylococcus aureus", "test": "Antimicrobial activity against Staphylococcus aureus ATCC 25923 after 24 hrs", "type": "functional", "settings": "ATCC 25923, 24 h"}, "A549": {"tested_on": "A549", "test": "Cytotoxicity against human A549 cells assessed as reduction in cell viability up to 200 uM after 20 hrs by MTT assay", "type": "functional, cell-based"}, "Pseudomonas aeruginosa [21]": {"tested_on": "Pseudomonas aeruginosa", "test": "Antimicrobial activity against Pseudomonas aeruginosa at 25 ug/well after 24 hrs by agar well diffusion method", "type": "functional", "settings": "read-out: DIZ"}, "Aspergillus niger [22]": {"tested_on": "Aspergillus niger", "test": "Antimicrobial activity against Aspergillus niger at 25 ug/well after 48 hrs by agar well diffusion method", "type": "functional", "settings": "read-out: DIZ"}, "Pseudomonas aeruginosa [23]": {"tested_on": "Pseudomonas aeruginosa", "test": "Antimicrobial activity against Pseudomonas aeruginosa at 100 ug/well after 24 hrs by agar well diffusion method", "type": "functional", "settings": "read-out: DIZ"}, "Escherichia coli [24]": {"tested_on": "Escherichia coli", "test": "Antimicrobial activity against Escherichia coli at 100 ug/well after 24 hrs by agar well diffusion method", "type": "functional", "settings": "read-out: DIZ"}, "Aspergillus niger [25]": {"tested_on": "Aspergillus niger", "test": "Antimicrobial activity against Aspergillus niger after 24 hrs by broth dilution method", "type": "functional"}, "Staphylococcus aureus [26]": {"tested_on": "Staphylococcus aureus", "test": "Ratio of MBC to MIC for Staphylococcus aureus ATCC 25923", "type": "functional"}, "Escherichia coli [27]": {"tested_on": "Escherichia coli", "test": "Antimicrobial activity against Escherichia coli ATCC 25922 after 24 hrs by broth dilution method", "type": "functional", "settings": "ATCC 25922, 24 h"}, "Penicillium chrysogenum [28]": {"tested_on": "Penicillium chrysogenum", "test": "Antimicrobial activity against Penicillium chrysogenum at 50 ug/well after 48 hrs by agar well diffusion method", "type": "functional", "settings": "read-out: DIZ"}, "Penicillium chrysogenum [29]": {"tested_on": "Penicillium chrysogenum", "test": "Antimicrobial activity against Penicillium chrysogenum at 25 ug/well after 48 hrs by agar well diffusion method", "type": "functional", "settings": "read-out: DIZ"}, "Aspergillus niger [30]": {"tested_on": "Aspergillus niger", "test": "Antimicrobial activity against Aspergillus niger at 50 ug/well after 48 hrs by agar well diffusion method", "type": "functional", "settings": "read-out: DIZ"}}, "note": "The source made the active and inactive calls. The rule behind the calls is not given here."}
{"smiles": "Cc1cc(SCc2nc3ccccc3s2)nc(SCc2nc3ccccc3s2)n1", "values": [{"measurement": "zone of inhibition at 50 µg/disc", "setting": "Pseudomonas aeruginosa [1]", "value": 21, "unit": "mm"}, {"measurement": "MIC", "setting": "Penicillium chrysogenum [2]", "value": 50, "unit": "µg/mL"}, {"measurement": "MIC", "setting": "Staphylococcus aureus [3]", "value": 50, "unit": "µg/mL"}, {"measurement": "Ratio", "setting": "Aspergillus niger [4]", "value": ">2"}, {"measurement": "zone of inhibition at 25 µg/disc", "setting": "Escherichia coli [5]", "value": 24, "unit": "mm"}, {"measurement": "MFC", "setting": "Penicillium chrysogenum [6]", "value": 200, "unit": "µg/mL"}, {"measurement": "zone of inhibition at 100 µg/disc", "setting": "Aspergillus niger [7]", "value": 28, "unit": "mm"}, {"measurement": "zone of inhibition at 100 µg/disc", "setting": "Staphylococcus aureus [8]", "value": 25, "unit": "mm"}, {"measurement": "Ratio", "setting": "Escherichia coli [9]", "value": ">2"}, {"measurement": "zone of inhibition at 25 µg/disc", "setting": "Staphylococcus aureus [10]", "value": 21, "unit": "mm"}, {"measurement": "zone of inhibition at 50 µg/disc", "setting": "Staphylococcus aureus [11]", "value": 23, "unit": "mm"}, {"measurement": "MBC", "setting": "Escherichia coli [12]", "value": "> 200", "unit": "µg/mL"}, {"measurement": "Ratio", "setting": "Pseudomonas aeruginosa [13]", "value": ">2"}, {"measurement": "zone of inhibition at 100 µg/disc", "setting": "Penicillium chrysogenum [14]", "value": 35, "unit": "mm"}, {"measurement": "Ratio", "setting": "Penicillium chrysogenum [15]", "value": ">2"}, {"measurement": "MFC", "setting": "Aspergillus niger [16]", "value": "> 200", "unit": "µg/mL"}, {"measurement": "MIC", "setting": "Pseudomonas aeruginosa [17]", "value": 50, "unit": "µg/mL"}, {"measurement": "MBC", "setting": "Pseudomonas aeruginosa [18]", "value": 200, "unit": "µg/mL"}, {"measurement": "zone of inhibition at 50 µg/disc", "setting": "Escherichia coli [19]", "value": 28, "unit": "mm"}, {"measurement": "MBC", "setting": "Staphylococcus aureus [20]", "value": 200, "unit": "µg/mL"}, {"measurement": "Activity", "setting": "A549", "value": "inactive"}, {"measurement": "zone of inhibition at 25 µg/disc", "setting": "Pseudomonas aeruginosa [21]", "value": 19, "unit": "mm"}, {"measurement": "zone of inhibition at 25 µg/disc", "setting": "Aspergillus niger [22]", "value": 24, "unit": "mm"}, {"measurement": "zone of inhibition at 100 µg/disc", "setting": "Pseudomonas aeruginosa [23]", "value": 24, "unit": "mm"}, {"measurement": "zone of inhibition at 100 µg/disc", "setting": "Escherichia coli [24]", "value": 30, "unit": "mm"}, {"measurement": "MIC", "setting": "Aspergillus niger [25]", "value": 50, "unit": "µg/mL"}, {"measurement": "Ratio", "setting": "Staphylococcus aureus [26]", "value": ">2"}, {"measurement": "MIC", "setting": "Escherichia coli [27]", "value": 100, "unit": "µg/mL"}, {"measurement": "zone of inhibition at 50 µg/disc", "setting": "Penicillium chrysogenum [28]", "value": 32, "unit": "mm"}, {"measurement": "zone of inhibition at 25 µg/disc", "setting": "Penicillium chrysogenum [29]", "value": 30, "unit": "mm"}, {"measurement": "zone of inhibition at 50 µg/disc", "setting": "Aspergillus niger [30]", "value": 25, "unit": "mm"}]}
{"smiles": "Cc1cc(SCc2nc3ccccc3o2)nc(SCc2nc3ccccc3o2)n1", "values": [{"measurement": "zone of inhibition at 50 µg/disc", "setting": "Pseudomonas aeruginosa [1]", "value": 20, "unit": "mm"}, {"measurement": "MIC", "setting": "Penicillium chrysogenum [2]", "value": 100, "unit": "µg/mL"}, {"measurement": "MIC", "setting": "Staphylococcus aureus [3]", "value": 50, "unit": "µg/mL"}, {"measurement": "Ratio", "setting": "Aspergillus niger [4]", "value": ">2"}, {"measurement": "zone of inhibition at 25 µg/disc", "setting": "Escherichia coli [5]", "value": 21, "unit": "mm"}, {"measurement": "MFC", "setting": "Penicillium chrysogenum [6]", "value": "> 200", "unit": "µg/mL"}, {"measurement": "zone of inhibition at 100 µg/disc", "setting": "Aspergillus niger [7]", "value": 24, "unit": "mm"}, {"measurement": "zone of inhibition at 100 µg/disc", "setting": "Staphylococcus aureus [8]", "value": 23, "unit": "mm"}, {"measurement": "Ratio", "setting": "Escherichia coli [9]", "value": ">2"}, {"measurement": "zone of inhibition at 25 µg/disc", "setting": "Staphylococcus aureus [10]", "value": 20, "unit": "mm"}, {"measurement": "zone of inhibition at 50 µg/disc", "setting": "Staphylococcus aureus [11]", "value": 22, "unit": "mm"}, {"measurement": "MBC", "setting": "Escherichia coli [12]", "value": "> 200", "unit": "µg/mL"}, {"measurement": "Ratio", "setting": "Pseudomonas aeruginosa [13]", "value": ">2"}, {"measurement": "zone of inhibition at 100 µg/disc", "setting": "Penicillium chrysogenum [14]", "value": 33, "unit": "mm"}, {"measurement": "Ratio", "setting": "Penicillium chrysogenum [15]", "value": ">2"}, {"measurement": "MFC", "setting": "Aspergillus niger [16]", "value": "> 200", "unit": "µg/mL"}, {"measurement": "MIC", "setting": "Pseudomonas aeruginosa [17]", "value": 100, "unit": "µg/mL"}, {"measurement": "MBC", "setting": "Pseudomonas aeruginosa [18]", "value": "> 200", "unit": "µg/mL"}, {"measurement": "zone of inhibition at 50 µg/disc", "setting": "Escherichia coli [19]", "value": 24, "unit": "mm"}, {"measurement": "MBC", "setting": "Staphylococcus aureus [20]", "value": "> 200", "unit": "µg/mL"}, {"measurement": "Activity", "setting": "A549", "value": "inactive"}, {"measurement": "zone of inhibition at 25 µg/disc", "setting": "Pseudomonas aeruginosa [21]", "value": 17, "unit": "mm"}, {"measurement": "zone of inhibition at 25 µg/disc", "setting": "Aspergillus niger [22]", "value": 20, "unit": "mm"}, {"measurement": "zone of inhibition at 100 µg/disc", "setting": "Pseudomonas aeruginosa [23]", "value": 22, "unit": "mm"}, {"measurement": "zone of inhibition at 100 µg/disc", "setting": "Escherichia coli [24]", "value": 29, "unit": "mm"}, {"measurement": "MIC", "setting": "Aspergillus niger [25]", "value": 100, "unit": "µg/mL"}, {"measurement": "Ratio", "setting": "Staphylococcus aureus [26]", "value": ">2"}, {"measurement": "MIC", "setting": "Escherichia coli [27]", "value": 100, "unit": "µg/mL"}, {"measurement": "zone of inhibition at 50 µg/disc", "setting": "Penicillium chrysogenum [28]", "value": 30, "unit": "mm"}, {"measurement": "zone of inhibition at 25 µg/disc", "setting": "Penicillium chrysogenum [29]", "value": 28, "unit": "mm"}, {"measurement": "zone of inhibition at 50 µg/disc", "setting": "Aspergillus niger [30]", "value": 22, "unit": "mm"}]}
